Reference: patent publication US12527812B2, “Esophageal stricture suppressing agent” (priority 2019, dated 2026)

Key:
[1] = system: esophageal stricture after entire circumference (100%) ESD; experiment: esophageal entire circumference (100%) ESD model, degree of esophageal stricture by macroscopical findings and histopathological analysis (Masson staining); format: in vivo
Source text: For the production of an esophageal entire circumference (100%) ESD model, miniature pigs for experiments were used.
As miniature pigs, three groups of a physiological saline administered group, a steroid preparation (Kenacort) administered group, and a CHST15 siRNA (manufactured by Hokkaido System Science Co., Ltd., lot number: 40481638) administered group were used (n=1/group). The miniature pig in each group was orally inserted with an upper gastrointestinal endoscope under general anesthesia and respiratory control, and an entire circumference (100%) ESD was performed using a dual knife with a total length of […] between 15 cm and 25 cm from the portal dentition. Into an entire circumference artificial ulcer immediately after preforming ESD was injected 2 mL in total of an administration solution (physiological saline, steroid preparation, CHST15 siRNA, 250 nM solution) using an endoscopic injection needle at a total of 20 locations so as to evenly cover the entire circumference from the ulcer bottom.
If no treatment is performed after ESD, esophageal stricture will develop within 2 weeks and food will not pass through, and the miniature pig will die within 4 weeks thereafter, so that the observation period after a single time administration was set to 2 weeks, the entire group was slaughtered after 2 weeks (Day 14), and the degree of esophageal stricture was investigated by macroscopical findings, and histopathological analysis (Masson staining).

[2] = system: stricture esophageal tissue after ESD; conditions: half circumferential (50%) ESD; Document 14; cited from earlier work
[3] = single local injection immediately after ESD, Day 14, n=1/group

Question: Which “suppressing effect of esophageal stricture after entire circumference ESD (overall)” value ([1]; consideration / summary of Example 1) does the source give for “CHST15 siRNA: siRNA having a structure in which the RNAs described in SEQ ID NOs:1 and 2 are hybridized; suppresses expression of the CHST15 gene (chain 1 GGAGCAGAGCAAGAUGAAUACAAUCAG; chain 2 GAUUGUAUUCAUCUUGCUCUGCUCCAU; chemistry not given here)” here?
Answer: Its value is “remarkable stricture suppressing effect”.

Question: And the “damage of the muscular layer (pathological findings, Masson staining)” value ([1]; pig, in vivo)?
Answer: Its value is “no damage of the muscular layer was observed”.

Question: And the “artificial ulcer repair / regenerated epithelium (pathological findings, Masson staining)” value [1, 3]?
Answer: The value was “almost covered with regenerated epithelium”.

Question: And the “edible state (macroscopical findings)” value [1, 3]?
Answer: Its value is “edible”.

Question: What about the “esophageal stricture / obstruction (macroscopical findings)” value [1, 3] of the same substance?
Answer: Its value is “no stricture or obstruction”.

Question: What about the “fibrosis deeper than the ulcer floor (pathological findings, Masson staining)” value [1, 3] of the same substance?
Answer: Its value is “no pathological fibrosis”.

Question: And the “shortening of esophageal length (macroscopical findings)” value ([1]; single local injection into artificial ulcer immediately after ESD, 2 mL in total at 20 locations (CHST15 siRNA 250 nM solution), Day 14, n=1/group)?
Answer: The value was “substantially not observed”.

Question: What about the “fibrosis when expression of CHST15 mRNA is suppressed” value [2] of the same substance?
Answer: Its value is “fibrosis is suppressed”.
